In brackets after ≈: the same amount, converted by molar mass. Like-named read-outs stand apart in the source and are kept apart here.
Legend:
gram positive bacteria = assay: In vitro anti-bacterial activity assay (broth dilution MIC), gram positive bacteria; assay type: cell-based, S. aureus; details: 18 h
Procedure, shortened: (§1)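 Broth dilution MIC following CLSI M7-A2: compounds serially diluted, log-phase test strains added to final ~5×10^5 CFU/ml, incubated ~18 hours at 35° C in ambient air. Plates read on microplate reader or visually; MIC is lowest concentration inhibiting growth.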

gram negative bacteria = assay: In vitro anti-bacterial activity assay (broth dilution MIC), gram negative bacteria; assay type: cell-based, E. coli
Procedure, shortened: as §1

[1] = Mammalian cytotoxicity assay (resazurin), COS-1 cells; assay type: cell-based; details: African green monkey, read-out: Cytotox. COS-1
Procedure, shortened: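 Cells seeded overnight at 37° C., 5% CO2, then exposed to serial compound dilutions for 24 hours. Medium replaced with resazurin (0.042 mg/ml in PBS with Ca and Mg) for 2 hours plus 30 minutes dark at room temperature; fluorescence read at ex 535/em 590 nm, IC50 taken as 50% growth inhibition.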

in vitro = assay type: cell-based; details: Chinese hamster, Cytotox. CHO-K1
3T3 fibroblast cells = assay: In vitro phototoxicity assay (neutral red; UV light-treated vs dark control plates); assay type: cell-based; details: for Photo Toxicity UV Tox50: UV light 50 minutes; for Photo Toxicity Dark Tox50: dark control plate
Procedure, shortened: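 Neutral red viability readout (A535 after EtOH/acetic acid extraction) compares paired plates: one exposed 50 min to UV at 1.6–1.8 mW/cm^2, one held in darkness, both dosed with compound in HBSS and recovered overnight. 3T3 fibroblast cells used; phototoxicity taken as the difference.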

[2] = Staphylococcus aureus, S. aureus MRSA5, read-out: Median MIC's G+ S. aureus MRSA5
[3] = Staphylococcus aureus, S. aureus RN450, read-out: Median MIC's G+ S. aureus RN450
[4] = Streptococcus pneumoniae, S. pneumoniae 157E-Strep, read-out: Median MIC's G+ S. pneumoniae 157E-Strep
[5] = Escherichia coli, 18 h, E. coli D1 209, read-out: Median MIC's G− E. coli D1 209
[6] = Escherichia coli, 18 h, E. coli MG 1655, read-out: Median MIC's G− E. coli MG 1655
[7] = Escherichia coli, ATCC25922, 18 h, E. coli ATCC 25922, read-out: Median MIC's G− E. coli ATCC 25922
[8] = Pseudomonas aeruginosa, 18 h, P. aeruginosa K201 PAO6609, read-out: Median MIC's G− P. aeruginosa K201 PAO6609

| Structure (SMILES) | MIC (gram positive bacteria; [2]) | MIC (gram positive bacteria; [3]) | MIC (gram positive bacteria; [4]) | MIC (gram negative bacteria; [5]) | MIC (gram negative bacteria; [6]) | MIC (gram negative bacteria; [7]) | MIC (gram negative bacteria; [8]) | IC50 at 24 h [1] | IC50 at 24 h (in vitro) | Photo Toxicity UV Tox50 (3T3 fibroblast cells) | Photo Toxicity Dark Tox50 (3T3 fibroblast cells) | MIC (gram negative bacteria; Escherichia coli, 18 h, read-out: Median MIC's G− E. coli D1 209, E. coli D1 209) | MIC (gram negative bacteria; Escherichia coli, 18 h, read-out: Median MIC's G− E. coli MG 1655, E. coli MG 1655) | MIC (gram negative bacteria; Escherichia coli, ATCC25922, 18 h, read-out: Median MIC's G− E. coli ATCC 25922, E. coli ATCC 25922) | MIC (gram negative bacteria; Pseudomonas aeruginosa, 18 h, read-out: Median MIC's G− P. aeruginosa K201 PAO6609, P. aeruginosa K201 PAO6609) |
| --- | --- | --- | --- | --- | --- | --- | --- | --- | --- | --- | --- | --- | --- | --- | --- |
| CN(C)[C@@H]1C(O)=C(C(N)=O)C(=O)[C@@]2(O)C(O)=C3C(=O)c4c(O)ccc(-c5cccc(C(=O)NCC[N+](C)(C)C)c5)c4C[C@H]3C[C@@H]12 [DA] | 64 mg/L | 4 mg/L | 32 mg/L | 64 mg/L | 64 mg/L | 64 mg/L | 64 mg/L | > 1.23 µM | > 1.23 µM | >123.61 µM | >123.61 µM | – | – | – | – |
| CN(CCOC(C)(C)C)Cc1cccc(-c2ccc(O)c3c2C[C@H]2C[C@H]4[C@H](N(C)C)C(O)=C(C(N)=O)C(=O)[C@@]4(O)C(O)=C2C3=O)c1 [BM] | 2 mg/L (≈ 3.16 µM) | 0.13 mg/L (≈ 0.205 µM) | 0.06 mg/L (≈ 0.0947 µM) | 4 mg/L (≈ 6.31 µM) | 8 mg/L (≈ 12.6 µM) | 4 mg/L (≈ 6.31 µM) | 64 mg/L (≈ 101 µM) | 22.8 µM | 21.6 µM | 5.93 µM | >104.43 µM | – | – | – | – |
| CN(C)[C@@H]1C(O)=C(C(N)=O)C(=O)[C@@]2(O)C(O)=C3C(=O)c4c(O)ccc(C(=O)CNCC(N)=O)c4C[C@H]3C[C@@H]12 [BZ] | 64 mg/L (≈ 121 µM) | 4 mg/L (≈ 7.57 µM) | 4 mg/L (≈ 7.57 µM) | 64 mg/L (≈ 121 µM) | 64 mg/L (≈ 121 µM) | 64 mg/L (≈ 121 µM) | 64 mg/L (≈ 121 µM) | > 119 µM | > 119 µM | >118.96 µM | >118.96 µM | – | – | – | – |
| COc1ccc(CN(C)C)cc1-c1ccc(O)c2c1C[C@H]1C[C@H]3[C@H](N(C)C)C(O)=C(C(N)=O)C(=O)[C@@]3(O)C(O)=C1C2=O [AT] | 0.5 mg/L (≈ 0.866 µM) | 0.06 mg/L (≈ 0.104 µM) | 0.06 mg/L (≈ 0.104 µM) | 1 mg/L (≈ 1.73 µM) | 1 mg/L (≈ 1.73 µM) | 0.5 mg/L (≈ 0.866 µM) | 64 mg/L (≈ 111 µM) | > 146 µM | > 146 µM | >146.03 µM | >146.03 µM | – | – | – | – |
| COCCNC(=O)c1ccc(-c2ccc(O)c3c2C[C@H]2C[C@H]4[C@H](N(C)C)C(O)=C(C(N)=O)C(=O)[C@@]4(O)C(O)=C2C3=O)o1 [DF] | 16 mg/L (≈ 27.5 µM) | 0.0625 mg/L (≈ 0.107 µM) | 0.06 mg/L (≈ 0.103 µM) | 64 mg/L (≈ 110 µM) | 32 mg/L (≈ 55 µM) | 16 mg/L (≈ 27.5 µM) | 64 mg/L (≈ 110 µM) | > 20 µM | > 20 µM | >200 µM | >200 µM | – | – | – | – |
| CCOC(=O)N1CCN(CC(=O)c2ccc(O)c3c2C[C@H]2C[C@H]4[C@H](N(C)C)C(O)=C(C(N)=O)C(=O)[C@@]4(O)C(O)=C2C3=O)CC1 [BR] | 0.5 mg/L (≈ 0.816 µM) | 0.06 mg/L (≈ 0.0979 µM) | 0.06 mg/L (≈ 0.0979 µM) | 64 mg/L (≈ 104 µM) | 8 mg/L (≈ 13.1 µM) | 8 mg/L (≈ 13.1 µM) | 64 mg/L (≈ 104 µM) | > 40.7 µM | > 40.7 µM | >131.28 µM | >131.28 µM | – | – | – | – |
| CN(C)[C@@H]1C(O)=C(C(N)=O)C(=O)[C@@]2(O)C(O)=C3C(=O)c4c(O)ccc(C(=O)CNCC(F)(F)F)c4C[C@H]3C[C@@H]12 [BT] | 2 mg/L (≈ 3.61 µM) | 0.06 mg/L (≈ 0.108 µM) | 0.06 mg/L (≈ 0.108 µM) | 64 mg/L (≈ 116 µM) | 8 mg/L (≈ 14.5 µM) | 2 mg/L (≈ 3.61 µM) | 64 mg/L (≈ 116 µM) | > 47 µM | > 47 µM | >151.65 µM | >151.65 µM | – | – | – | – |
| CN(C)CCNC(=O)c1ccc(O)c2c1C[C@H]1C[C@H]3[C@H](N(C)C)C(O)=C(C(N)=O)C(=O)[C@@]3(O)C(O)=C1C2=O [AH] | 64 mg/L (≈ 121 µM) | 16 mg/L (≈ 30.3 µM) | 8 mg/L (≈ 15.1 µM) | 64 mg/L (≈ 121 µM) | 64 mg/L (≈ 121 µM) | 64 mg/L (≈ 121 µM) | 64 mg/L (≈ 121 µM) | > 126 µM | > 126 µM | >125.56 µM | >125.56 µM | – | – | – | – |
| CN(C)[C@@H]1C(O)=C(C(N)=O)C(=O)[C@@]2(O)C(O)=C3C(=O)c4c(O)ccc(-c5cccc(CCCO)c5)c4C[C@H]3C[C@@H]12 [CM] | 0.5 mg/L (≈ 0.911 µM) | 0.0625 mg/L (≈ 0.114 µM) | 0.06 mg/L (≈ 0.109 µM) | 64 mg/L (≈ 117 µM) | 64 mg/L (≈ 117 µM) | 64 mg/L (≈ 117 µM) | 64 mg/L (≈ 117 µM) | 15.1 µM | 14.1 µM | >167.5 µM | >167.5 µM | – | – | – | – |
| CN(C)CCN(C)C(=O)c1cccc(-c2ccc(O)c3c2C[C@H]2C[C@H]4[C@H](N(C)C)C(O)=C(C(N)=O)C(=O)[C@@]4(O)C(O)=C2C3=O)c1 [R] | 64 mg/L (≈ 103 µM) | 0.5 mg/L (≈ 0.808 µM) | 0.25 mg/L (≈ 0.404 µM) | – | – | – | – | > 137 µM | > 137 µM | >137.36 µM | >137.36 µM | 64 mg/L (≈ 103 µM) | 15 mg/L (≈ 24.2 µM) | 32 mg/L (≈ 51.7 µM) | 64 mg/L (≈ 103 µM) |
| CN(C)CCCCN(C)Cc1cccc(-c2ccc(O)c3c2C[C@H]2C[C@H]4[C@H](N(C)C)C(O)=C(C(N)=O)C(=O)[C@@]4(O)C(O)=C2C3=O)c1 [CW] | 8 mg/L (≈ 12.6 µM) | 0.06 mg/L (≈ 0.0948 µM) | 0.06 mg/L (≈ 0.0948 µM) | 4 mg/L (≈ 6.32 µM) | 2 mg/L (≈ 3.16 µM) | 2 mg/L (≈ 3.16 µM) | 64 mg/L (≈ 101 µM) | > 132 µM | > 132 µM | >132.05 µM | >132.05 µM | – | – | – | – |
| CN(C)[C@@H]1C(O)=C(C(N)=O)C(=O)[C@@]2(O)C(O)=C3C(=O)c4c(O)ccc(-c5cccc(C(=O)NCCO)c5)c4C[C@H]3C[C@@H]12 [CK] | 8 mg/L (≈ 13.9 µM) | 0.125 mg/L (≈ 0.216 µM) | 0.125 mg/L (≈ 0.216 µM) | 64 mg/L (≈ 111 µM) | 64 mg/L (≈ 111 µM) | 64 mg/L (≈ 111 µM) | 64 mg/L (≈ 111 µM) | > 14.7 µM | > 14.7 µM | >146.56 µM | >146.58 µM | – | – | – | – |
| COCCNCC(=O)c1ccc(O)c2c1C[C@H]1C[C@H]3[C@H](N(C)C)C(O)=C(C(N)=O)C(=O)[C@@]3(O)C(O)=C1C2=O [AG] | 64 mg/L (≈ 121 µM) | 4 mg/L (≈ 7.55 µM) | 4 mg/L (≈ 7.55 µM) | 64 mg/L (≈ 121 µM) | 32 mg/L (≈ 60.4 µM) | 32 mg/L (≈ 60.4 µM) | 64 mg/L (≈ 121 µM) | > 158 µM | > 158 µM | >157.68 µM | >157.68 µM | – | – | – | – |

— patent US20100022483A1, “Substituted Tetracycline Compounds” (Paratek Pharmaceuticals, Inc., priority 2008, published 2010)
